Earlier results, collected in patent EP2949324A1, “Prevention and/or treatment of ischemia/reperfusion injury” (Consorci Institut Catala de Ciencies Cardiovasculars, priority 2014, dated 2015).

Target: Na^+/H^+ exchange system (Homo sapiens, UniProt P19634)
Details: recent clinical trial; cited from earlier work

Sequence of Na^+/H^+ exchange system (P19634 whole entry): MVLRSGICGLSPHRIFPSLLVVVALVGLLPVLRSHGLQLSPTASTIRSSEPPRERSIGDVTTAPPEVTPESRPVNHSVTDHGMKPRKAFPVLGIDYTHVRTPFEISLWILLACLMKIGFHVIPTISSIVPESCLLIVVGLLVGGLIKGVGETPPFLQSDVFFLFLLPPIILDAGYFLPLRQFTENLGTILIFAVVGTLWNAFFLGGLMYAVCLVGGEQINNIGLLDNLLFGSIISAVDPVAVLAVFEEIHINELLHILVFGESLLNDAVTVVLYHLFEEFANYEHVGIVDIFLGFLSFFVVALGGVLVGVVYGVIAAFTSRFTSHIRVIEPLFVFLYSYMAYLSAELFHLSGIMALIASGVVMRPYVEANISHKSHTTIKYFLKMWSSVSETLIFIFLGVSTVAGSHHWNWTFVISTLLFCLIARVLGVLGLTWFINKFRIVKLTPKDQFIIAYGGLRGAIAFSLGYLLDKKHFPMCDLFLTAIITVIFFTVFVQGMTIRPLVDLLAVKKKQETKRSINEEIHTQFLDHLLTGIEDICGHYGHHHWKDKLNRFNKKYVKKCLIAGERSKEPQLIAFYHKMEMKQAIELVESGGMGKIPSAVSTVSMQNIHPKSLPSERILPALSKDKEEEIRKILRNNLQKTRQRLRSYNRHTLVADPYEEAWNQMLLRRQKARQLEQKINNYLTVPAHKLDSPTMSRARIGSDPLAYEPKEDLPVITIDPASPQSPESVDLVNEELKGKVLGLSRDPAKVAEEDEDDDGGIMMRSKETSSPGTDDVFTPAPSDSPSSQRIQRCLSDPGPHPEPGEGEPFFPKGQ

CC(C)c1ccc(C(=O)NC(=N)N)cc1S(C)(=O)=O [Cariporide]
reperfusion injury (improved left ventricular (LV) dysfunction): attenuation of reperfusion injury
